Test results published in article doi:10.1101/2021.12.13.472350v1, “An amphipathic and cationic antimicrobial peptide kills colistin resistant Gram-negative pathogens in vivo” (bioRxiv, 2021).
Converted amounts (≈) assume the structure as drawn.

Key:
E. coli ESBL20150072 = experiment: In vivo sepsis/peritonitis mouse infection model; conditions: NMRI mice infected IP; 10 mg/kg IP at 1 and 3 h; 5 hours post infection
Experimental: Outbred female NMRI mice (NMRI; weight 26–30 g; Taconic, Denmark) were used throughout the study, as previously described ([69], [70]). […] Colistin is recommended at a dose of 5-10 mg/kg, according to the European Medicines Agency (EMA) ([71]). The animals were kept in Macrolon type III cages in groups of six and allowed free access to feed and water. Experiments were initiated after an acclimatization period of 7 days. Inoculation (bacterial infection) was performed by intraperitoneal (IP) injection of 0.5 ml bacterial suspension containing 2×10^7 CFU/ml and 5% (wt/vol) mucin (Sigma-Aldrich). During experiments, groups of eight mice per cage constituting one experimental unit were randomly assigned to treatment (5 mg/kg ChIP and 10 mg/kg ChIP or colistin 10 mg/kg and 24 mg/kg) or no treatment (vehicle). Peptide and colistin was administered as a single bolus injection IP (volume injected 0.2 ml) at 1 hours and again 3. At various times post-infection, ∼200 µL blood from the jaw/cheek was collected in Eppendorf tubes with anti-coagulate (Sarstedt, Nümbrecht, Germany). Peritoneal lavage was performed by injecting 2.0 ml of sterile physiological saline IP. After 1 minute of abdominal massage, the peritoneum was opened and peritoneal lavage fluid (PLF) withdrawn. PLF was immediately placed in an insulated 4 °C cooling box for transportation and kept on ice at 4 °C. The mouse peritonitis model was repeated in duplicates for E. coli ATCC 25922 and A. baumannii ATCC 19606 nad in triplicate for E. coli ESBL20150072, while only a single experiment was carried out on A. baumannii CR17. Animals were sacrificed at various times prior to and following infection. Data from repeated experiments were pooled for analyses. Quantification of bacterial load was performed by spot plating of blood and peritoneal fluid samples from the mice. Dilution series were made in sterile 0.9% NaCl solution, from which 20 μl was spotted on solid lactose agar plates (Bromthymole Blue plates, SSI Diagnostica). Bacterial counts were recorded after overnight incubation at 37 °C in ambient air. The detection limit was 50 CFU/ml. The clinical condition of the mice was determined using a self-developed clinical score. For this score, mouse behavior and appearance were observed and evaluated for the parameters piloerection, attitude, locomotion, breathing and curiosity and awarded a score from 0 to 5 by a blinded observer. 0 = no clinical signs, 1 = slightly ruffled fur, 2 = ruffled fur and strenuous breathing, 3 = 2 plus lethargy, 4 = 3 plus hunched posture and decreased activity, and 5 = moribund. No significant difference in the clinical score between groups was observed 2 and 4 h post treatment. All mice were recorded for score 2.

E. coli and A. baumannii = experiment: Mouse peritonitis model, overall statement; format: in vivo; conditions: after two-dose treatment
Experimental: Outbred female NMRI mice (NMRI; weight 26–30 g; Taconic, Denmark) were used throughout the study, as previously described ([69], [70]). […] Colistin is recommended at a dose of 5-10 mg/kg, according to the European Medicines Agency (EMA) ([71]). The animals were kept in Macrolon type III cages in groups of six and allowed free access to feed and water. Experiments were initiated after an acclimatization period of 7 days. Inoculation (bacterial infection) was performed by intraperitoneal (IP) injection of 0.5 ml bacterial suspension containing 2×10^7 CFU/ml and 5% (wt/vol) mucin (Sigma-Aldrich). During experiments, groups of eight mice per cage constituting one experimental unit were randomly assigned to treatment (5 mg/kg ChIP and 10 mg/kg ChIP or colistin 10 mg/kg and 24 mg/kg) or no treatment (vehicle). […] Quantification of bacterial load was performed by spot plating of blood and peritoneal fluid samples from the mice. […] Bacterial counts were recorded after overnight incubation at 37 °C in ambient air. […] The clinical condition of the mice was determined using a self-developed clinical score. For this score, mouse behavior and appearance were observed and evaluated for the parameters piloerection, attitude, locomotion, breathing and curiosity and awarded a score from 0 to 5 by a blinded observer. […] All mice were recorded for score 2.

E. coli MG1655 = experiment: Macromolecular incorporation assay; format: cell-based; conditions: 10xMIC, high cell density (OD600 = 0.1, approximately 1×10^8 CFU/ml), AB minimal medium
Experimental: Bacteria were grown in cation adjusted Müller-Hinton broth (MHB-II; Sigma-Aldrich) for MIC or Luria-Bertani (LB) broth at 37°C, supplemented with relevant antibiotics when required. For macromolecular incorporation measurements cells were grown in AB minimal medium ([65]) supplemented with 10 μg/ml thiamine and 0.2% glucose without Cas amino acids. Except for glucosamine incorporation where 0.2% glycerol was used as carbon source. Growth rate of the mcr-1 carrying BW25113 strain was determined in MHB-II on exponentially growing cells by measuring OD600 over time.
Macromolecular synthesis was determined by incorporation of […], 3H-arginine or 3H-glucosamine into DNA, RNA, proteins and cell wall respectively, as described previously ([66]). Briefly, 500 µl samples of exponentially growing MG1655 cells were incubated with 0.375 µCi of the relevant precursor for 2 minutes (uridine), 4 minutes (thymidine and arginine), and 20 minutes (glucosamine). Reactions were stopped by adding 5 ml of ice-cold 5% TCA containing 0.1 M NaCl. Samples were filtered (ADVANTEC®, 25mm, lot no: 80302708) washed twice and dried overnight in scintillation vials (PV1AS, MERIDIAN, BIOTECHNOLOGIES Ltd) before counting on a HINDEX 300SL in 5 ml of scintillation fluid (Scintillation fluid, ULTIMA GOLD™, Perkin Elmer, Inc. LOT No.: 77-18151).

P. aeruginosa B3-CFI = conditions: clinical isolate, colistin resistant, MHB-II, 37°C, ~5×10^5 CFU/ml, triplicate
HeLa cells = conditions: ChIP concentrations of 40 µg/ml and above, 24 hours, DMEM without serum, Trypan Blue, triplicate
Experimental: HeLa cells were cultured in Dulbecco’s Modified Eagles Medium (DMEM) (Sigma) supplemented with 10% fetal calf serum (Sigma) and 2 mM glutamine at 37°C in a humid incubator with 5% CO2. Cell survival after 24 hours with various amounts of ChIP in DMEM without serum was determined by staining with Trypan Blue Stain (Gibco/Life Technologies). Experiments were performed in triplicate.

Structure (SMILES): CC[C@@H](C)[C@@H](NC(=O)[C@@H](CCCCN)NC(=O)[C@@H](CCCCN)NC(=O)[C@@H](Cc1ccccc1)NC(=O)[C@@H](CC(C)C)NC(=O)[C@@H](CCCCN)NC(=O)[C@H](N)CCCCN)C(=O)N[C@H](CC(C)C)C(=O)N[C@H](CCCNC(=N)N)C(=O)N[C@H](Cc1ccc(O)cc1)C(=O)N[C@H](CC(C)C)C(N)=O [ChIP]
- peritoneal titers (E. coli ESBL20150072): 1×10^4 CFU/ml
- reduction in peritoneal titers compared to vehicle (1×10^8 CFU/ml) (E. coli ESBL20150072): 3 logs
- bacterial reduction intraperitoneal (E. coli and A. baumannii): up to 5 logs
- incorporation of radioactive labelled precursors into DNA, RNA, protein and peptidoglycan (E. coli MG1655): blocked incorporation
- MIC (P. aeruginosa B3-CFI): 8 µg/mL (≈ 5.52 µM)
- HeLa cell survival (HeLa cells): greatly reduced survival
